Measurements taken from ChEMBL document CHEMBL1914348, “Discovery of pyrazoles as novel FPR1 antagonists” (Bioorg Med Chem Lett, 2011).

Experiments:
fMet-Leu-Phe receptor = target: T1, fMet-Leu-Phe receptor (Homo sapiens, UniProt P21462); assay: Antagonist activity at human FPR1 in human neutrophils assessed as inhibition of fMLF-stimulated intracellular calcium mobilisation by FLIPR assay; type: functional, cell-based
T1 sequence (P21462 whole entry): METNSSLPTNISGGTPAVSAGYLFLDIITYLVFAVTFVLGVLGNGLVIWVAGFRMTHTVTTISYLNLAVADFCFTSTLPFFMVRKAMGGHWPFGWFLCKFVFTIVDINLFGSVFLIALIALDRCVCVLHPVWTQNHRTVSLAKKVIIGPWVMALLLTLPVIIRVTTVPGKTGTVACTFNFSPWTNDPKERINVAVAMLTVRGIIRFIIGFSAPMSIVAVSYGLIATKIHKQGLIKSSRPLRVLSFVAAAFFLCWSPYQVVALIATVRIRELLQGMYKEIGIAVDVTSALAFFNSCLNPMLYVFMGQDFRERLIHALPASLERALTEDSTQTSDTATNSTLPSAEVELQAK

[1] = target: T2, fMet-Leu-Phe receptor (Homo sapiens) (UniProt P21462); assay: Antagonist activity at human FPR1 in human neutrophils assessed as inhibition of fMLF-stimulated intracellular calcium mobilisation at 50 uM by FLIPR assay; type: functional, cell-based
T2 sequence (whole entry): T1 sequence (P21462 whole entry)

Row | IC50 (fMet-Leu-Phe receptor) | inhibition [1] | Compound
1 | 158 nM |  | Cc1ccc(S(=O)(=O)Nc2c(C(=O)NC3CCCCC3C)c(C)nn2-c2ccccc2)cc1 (mixture of isomers)
2 | 3980 nM |  | Cc1ccc(S(=O)(=O)Nc2c(C(=O)NC3CCCCC3)cnn2-c2ccccc2)cc1
3 | 10000 nM |  | CCC(CC)NC(=O)c1cnn(-c2ccccc2Cl)c1NS(=O)(=O)c1ccc(C)cc1
4 |  | < 25% | CNC(=O)c1cnn(-c2ccccc2)c1NS(=O)(=O)c1ccc(C)cc1
5 | 10000 nM |  | CCC(CC)NC(=O)c1cn(-c2ccccc2)nc1NS(=O)(=O)c1ccc(C)cc1
6 | 5010 nM |  | CCC(CC)NC(=O)c1cnn(Cc2ccccc2)c1NS(=O)(=O)c1ccc(C)cc1
7 | 10000 nM |  | Cc1ccc(S(=O)(=O)Nc2c(C(=O)NCc3ccccc3)cnn2-c2ccccc2)cc1
8 |  | < 25% | CCC(CC)NC(=O)c1cnn(C)c1NS(=O)(=O)c1ccc(C)cc1
9 | 1580 nM |  | CCC(CC)NC(=O)c1ncn(-c2ccccc2)c1NS(=O)(=O)c1ccc(C)cc1
10 | 15800 nM |  | CCC(CC)NC(=O)c1cnn(-c2ccc(C#N)cc2)c1NS(=O)(=O)c1ccc(C)cc1
11 | 2000 nM |  | Cc1ccc(S(=O)(=O)Nc2c(C(=O)NCC(C)(C)C)c(C)nn2-c2ccccc2)cc1
12 | 158 nM |  | CCC(C)NC(=O)c1c(C)nn(-c2ccccc2)c1NS(=O)(=O)c1ccc(C)cc1 (stereo not given)
13 | 794 nM |  | Cc1ccc(S(=O)(=O)Nc2c(C(=O)NC3CCCCC3)c(C)nn2-c2ccccc2)cc1
14 | 5010 nM |  | CCC(CC)NC(=O)c1cnn(-c2ccccc2)c1NS(=O)(=O)c1ccc(-c2cnco2)cc1
15 | 3980 nM |  | CCC(CC)NC(=O)c1nnn(-c2ccccc2)c1NS(=O)(=O)c1ccc(C)cc1
16 | 1000 nM |  | Cc1ccc(S(=O)(=O)Nc2c(C(=O)NC3CCCCC3C)cnn2-c2ccccc2)cc1 (mixture of isomers)
17 | 6310 nM |  | Cc1ccc(S(=O)(=O)Nc2c(C(=O)NC(C)C)c(C)nn2-c2ccccc2)cc1
18 | 1580 nM |  | Cc1ccc(S(=O)(=O)Nc2c(C(=O)N(C)C3CCCCC3)cnn2-c2ccccc2)cc1
19 | 25.1 nM |  | Cc1ccc(S(=O)(=O)Nc2c(C(=O)N[C@@H](C)C(C)(C)C)c(C(F)(F)F)nn2-c2ccccc2)cc1
20 | 1000 nM |  | Cc1nn(-c2ccc(F)cc2)c(NS(=O)(=O)c2cccnc2)c1C(=O)N[C@@H](C)C(C)(C)C
